1 compound from patent US20250034194A1, “INHIBITORS OF ABNORMAL PHOSPHORYLATION AND TAU PROTEIN AGGREGATION” (UNIVERSITE DE PICARDIE JULES VERNE, priority 2021, published 2025) can be followed below.

Test [1] concerns tau phosphorylation (S262 site) in cortical cells of rTg4510 mice (human tau P301L). Kind of test: In cellulo tau phosphorylation test in cortical cells of rTg4510 mice. Particulars: 24 h. Format: cell-based. From the text:
Cortical cells from rTg4510 mice mutated for human tau protein (P301 L) were used as a model of primary cells expressing a tauopathy without induction by an effector, unlike the previous cellular model (Santa Cruz et al., Science, 2005).
Cortical cells are extracted from mouse embryos expressing the P301L mutation at stage E16 and cultured in a 6-well plate. On day 14 (moderate tau phosphorylation) or day 18 (severe tau phosphorylation), cells extracted from the same embryo are placed in the presence of the Mal16diS molecule at different concentrations (0.1 or 1 μg/mL), in a final volume of 2 mL simultaneously with a well of cells from the same embryo not receiving molecules for 24 h. After 24 h of treatment with the molecules, the cells are rinsed with 1×PBS then lysed and recovered in RIPA buffer (Thermo Fischer). The protein extracts from the cells (10 μg) are then analysed by western blot according to the same procedure described above.
The tau phosphorylation site studied here is the S262 site (Thermo Fisher), normalized to the expression of total tau protein (K9JA, Dako). The bands are quantified using the Odyssey software of the LI-COR device allowing the p-tau/tau ratio to be calculated for each of the conditions. The ratio obtained for each concentration of molecule is then expressed as a percentage of the ratio obtained for cells not treated by the molecules. Thus a value less than 100% corresponds to protection provided by the molecules in this cellular model of expression of tau phosphorylation. The experiment was repeated at least three times for each dose of “Mal16diS” molecule. The mean and standard deviation of the replicates are shown in FIGS. 17 and 18; each of the values obtained for each dose is compared to that of the cells without addition of the molecule, with a t-test. Statistical differences with p-value <0.01 and <0.001 are represented by “**” and “***” respectively.

The subject of test [2] is tau phosphorylation (S262 site) in SH-SY5Y cells. Kind of test: In cellulo tau phosphorylation test in the SH-SY5Y line (H2O2 stress induction). Format: cell-based. Particulars: 24 hours, then H2O2. As to the method: The tau phosphorylation induction model on the SH-SY5Y cell line described in the Gly-CRRET laboratory article was used here (Sepulveda-Diaz et al., 2015).
In short, SH-SY5Y cells are seeded in 6-well plates and differentiated using retinoic acid (10 μM, Sigma Aldrich) for 5 days. On day 6, the cells are placed in the presence of the Mal16diS and Mal18diS molecules at different concentrations (1, 10 or 100 μg/mL), in a final volume of 2 mL simultaneously with a well not receiving molecules. After 24 hours, the molecules are removed and the stress inducer (H2O2, Sigma Aldrich) is added to the cell medium for 30 minutes. The cells are then rinsed with 1×PBS then lysed and recovered in RIPA buffer (Thermo Fisher). The protein extracts from the cells (10 μg) are then analysed by western blot according to the same procedure described above.
The tau phosphorylation site studied here is the S262 site (Thermo Fisher), normalized to the expression of the GAPDH protein (Sigma Aldrich). The bands are quantified using the Odyssey software of the LI-COR device allowing the p-tau/GAPDH ratio to be calculated for each of the conditions. The ratio obtained for each concentration of molecule is then expressed as a percentage of the ratio obtained for the control cells, i.e., not treated by the molecules. Thus a value less than 100% corresponds to protection provided by the molecules in this cellular model of tau phosphorylation induction.
The experiment was repeated at least 4 times for each molecule dose for the “Mal16diS” and “Mal18diS” molecules and at least twice for the “Cell16diS” and “Lac16diS” molecules. The mean and standard deviation of the replicates are shown in FIGS. 13 to 16; each of the values obtained for each dose is compared to that of the control without addition of molecule by means of a t-test. Statistical differences with p-value <0.05 and <0.001 are represented by “*” and “***” respectively.

On to `CCCCCCCCCCCCCCCCNC(=O)[C@H](O)[C@@H](O)[C@H](O[C@H]1OC(COS(=O)(=O)[O-])[C@@H](O)C(O)[C@@H]1O)[C@H](O)COS(=O)(=O)[O-].[Na+].[Na+]` (stereo partly drawn) [Mal16diS, N-Hexadecyl-6,6′-Di-O-Sulfo-D-Maltobioamide Disodium], for which the “reduction in tau phosphorylation (S262, p-tau/tau) compared to untreated cells” value in test [1] (moderate phosphorylation (D14), 0.1 μg/mL) was 48%; in test [1] (moderate phosphorylation (D14), 1 μg/mL) it was 64%; in test [1] (severe phosphorylation (D18), 0.1 μg/mL), 39%; in test [1] (severe phosphorylation (D18), 1 μg/mL), 53%. The results for the “reduction in tau phosphorylation (S262, p-tau/GAPDH) compared to untreated cells” value in test [2] (1 μg/mL) and in test [2] (10 μg/mL) were 30% and 40%, respectively.
